Experimental data published in patent US20170035894A1, “DRUG DELIVERY CONJUGATES FOR TREATING RESISTANT CANCER AND FOR USE IN COMBINATION THERAPY” (ENDOCYTE, INC., priority 2014, published 2017).
Structures can show the parent of a compound that is named as a salt.

Experiments:
[1] = Cytotoxicity of unconjugated drugs to cells in culture; format: cell-based; details: cells in culture; unconjugated drug; read-out: typical IC50, cytotoxic to cells in culture
[2] = Toxicity as measured by weight loss / gross animal toxicity in tumor-bearing mice; details: for Toxicity Avg. Weight Loss / Toxicity Deaths (%): TIW, 2 weeks
Experimental: METHOD. Toxicity as Measured by Weight Loss. The percentage weight change of the test animals was determined on selected days post-tumor inoculation (PTI), and during dosing. The results were graphed.
(§1) Evaluation. Tumor size was monitored and body weight measured 3 times/week. Attention was given to gross animal morphology and behavior. Euthanasia was performed if the mice lost >20% of weight or when the tumors reached a size of 1500 mm3. Euthanasia was also performed at the researcher's discretion if mice lost a lot of weight in a short duration or when mice were approaching moribund conditions. Blood samples were collected by cardiac puncture from all viable animals from selected cohorts. Heart, lungs, liver, spleen, kidney, intestines, bone, brain and muscle were obtained immediately after euthanasia. The tissues were removed and stored in 10% neutral-buffered formalin.

KB tumors = experiment: Inhibition of tumor growth, s.c. KB tumors; format: in vivo, nu/nu mice; details: for CR (%) / Cures (%) / PR (%): TIW, 2 weeks
Experimental: METHOD. Inhibition of Tumor Growth in Mice. Four to seven week-old mice (Balb/c or nu/nu strains) were purchased from Harlan Sprague Dawley, Inc. (Indianapolis, Ind.). Normal rodent chow contains a high concentration of folic acid (6 mg/kg chow); accordingly, test animals were maintained on a folate-free diet (Harlan diet #TD00434) for about 1 week before tumor implantation to achieve serum folate concentrations close to the range of normal human serum, and during the Method. For tumor cell inoculation, 1×10^6 M109 cells (a syngeneic lung carcinoma) in Balb/c strain, or 1×10^6 KB cells in nu/nu strain, in 100 μL were injected in the subcutis of the dorsal medial area (right axilla). Tumors were measured in two perpendicular directions every 2-3 days using a caliper, and their volumes were calculated as 0.5×L×W^2, where L=measurement of longest axis in mm and W=measurement of axis perpendicular to L in mm.
Dosing solutions were prepared fresh each day in PBS and administered through the lateral tail vein of the mice.
Tumor implantation. KB tumor cells were grown in folate-deficient RPMI 1640 with 5% FBS at 37° C. in a 5% CO2 humidified atmosphere. KB (1×10^6 cells per animal) tumor cells were inoculated subcutaneously […] post start of the folate deficient diet. Mice were dosed after the tumors reached between 100-150 mm3.
Preparation of dosing drug solutions. Dosing solutions were prepared when dosing began by weighing appropriate amounts of each compound, reconstituting in PBS, pH 7.4, sterile filtering the drug solution through a 0.22 µm PVDF syringe filter, and freezing aliquots for each day of dosing at −20° C.
as §1
For example, a 50% decrease in tumor volume from the initial measurement represents a partial response.
For example, a decrease in tumor volume where the measurements in two perpendicular directions are each about 2 mm or less represents a complete response.

LU2505 NSCLC tumors = experiment: Huprime NSCLC PDX tumor model; format: in vivo, Balb/c nu/nu mice; details: Docetaxel 15 mg/kg (one dose)
Experimental: (§2) Female Balb/c nu/nu mice were fed ad libitum with folate-deficient chow (Harlan diet #TD01013) for the duration of the experiment. Primary human NSCLC models LU1147 or LU2505 fragments (2-4 mm in diameter) were inoculated subcutaneously at the right flank of each mouse. Mice were randomized into experimental groups of 7 mice and test articles were injected through the lateral tail vein under sterile conditions in a volume of 200 μL of phosphate-buffered saline (PBS). These studies were performed at Crown Bioscience (Beijing) Inc., Ground Floor, Light Muller Building, Changping Sector of Zhongguancun Scientific Park, No. 21 Huoju Road, Changping District, Beijing, P.R. China.
(§3) Growth of each s.c. tumor was followed by measuring the tumor two times per week until a volume of 1200 mm^3 was reached. Tumors were measured in two perpendicular directions using Vernier calipers, and their volumes were calculated as 0.5×L×W^2, where L=measurement of longest axis in mm and W=measurement of axis perpendicular to L in mm.

LU1147 NSCLC tumors = experiment: Huprime NSCLC PDX tumor model; format: in vivo, Balb/c nu/nu mice; details: Docetaxel 15 mg/kg (one dose)
Experimental: as §2, §3

ST502 tumors = experiment: TNBC PDX tumor model; format: in vivo, Balb/c nu/nu mice; details: Eribulin mesylate 1 mg/kg once a week for two weeks
Experimental: (§4) Female Balb/c nu/nu mice were fed ad libitum with folate-deficient chow (Harlan diet #TD01013) for the duration of the experiment. Primary human Endometrial model ST040, TNBC models 5T502 and ST738 and Ovarian model ST024 fragments (2-4 mm in diameter) were inoculated subcutaneously at the right flank of each mouse. Mice were randomized into 6 experimental groups of 5 or 3 mice each and test articles were injected through the lateral tail vein under sterile conditions in a volume of 200 μL of phosphate-buffered saline (PBS).
as §3

ST738 tumors = experiment: TNBC PDX tumor model; format: in vivo, Balb/c nu/nu mice; details: Eribulin mesylate 1 mg/kg once a week for two weeks
Experimental: as §4, §3

ST040 tumors = experiment: Endometrial PDX tumor model; format: in vivo, Balb/c nu/nu mice; details: Paclitaxel 15 mg/kg once a week for two weeks
Experimental: as §4, §3

ST024 tumors = experiment: Ovarian PDX tumor model; format: in vivo, Balb/c nu/nu mice; details: Paclitaxel 15 mg/kg once a week for two weeks
Experimental: as §4, §3

[3] = system: KB-CR2000 (cisplatin resistant) tumors; experiment: Cisplatin-resistant KB-CR2000 tumor model; format: in vivo, mice; details: cisplatin 3 mg/kg twice per week, 2 weeks
Excerpt: METHOD. Human cisplatin-resistant cell line. […] In addition, regrowth of the tumor was only observed in 1/5 test animals.

cells in culture = experiment: Cytotoxicity of unconjugated drugs to cells in culture; format: cell-based; details: unconjugated drug; read-out: typical IC50, cytotoxic to cells in culture
[4] = KB tumors, 1.0 μmol/kg (2 doses)
[5] = 1.0 μmol/kg (2 doses, only 2 doses due to toxicity)
[6] = KB tumors, 0.1 μmol/kg (4 doses)
[7] = KB tumors, 0.2 μmol/kg (3 doses)
[8] = KB tumors, 0.5 μmol/kg (1 dose)
[9] = Carboplatin 30 mg/kg BIW×2 combined with paclitaxel 10 mg/kg BIW×2

CCCC(=O)OCN(C(=O)[C@@H](NC(=O)[C@H]1CCCCN1C)C(C)CC)[C@H](C[C@@H](OC(C)=O)c1nc(C(=O)N[C@@H](Cc2ccc(O)cc2)C[C@H](C)C(=O)NN)cs1)C(C)C (stereo partly shown) [TubB-H, reference compound]
IC50 [1]: ~1 nM | Toxicity Avg. Weight Loss ([2]; KB tumors, 0.5 μmol/kg): <5.5% | Toxicity Deaths (%) ([2]; KB tumors, 0.5 μmol/kg): 0% | Toxicity Avg. Weight Loss ([2]; KB tumors, 0.75 μmol/kg): >10% | Toxicity Deaths (%) ([2]; KB tumors, 0.75 μmol/kg): 20% | Toxicity Avg. Weight Loss [2, 4]: >15% | Toxicity Deaths (%) [2, 4]: 20% | CR (%) (KB tumors; 0.5 μmol/kg): 0% | Cures (%) (KB tumors; 0.5 μmol/kg): 0% | PR (%) (KB tumors; 0.5 μmol/kg): 0% | CR (%) (KB tumors; 0.75 μmol/kg): 0% | Cures (%) (KB tumors; 0.75 μmol/kg): 0% | PR (%) (KB tumors; 0.75 μmol/kg): 0% | CR (%) (KB tumors; [5]): 0% | Cures (%) (KB tumors; [5]): 0% | PR (%) (KB tumors; [5]): 0%

CC(=O)O[C@@]12CO[C@@H]1C[C@H](O)[C@@]1(C)C(=O)[C@H](O)C3=C(C)[C@@H](OC(=O)[C@H](O)[C@@H](NC(=O)OC(C)(C)C)c4ccccc4)C[C@@](O)([C@@H](OC(=O)c4ccccc4)[C@H]21)C3(C)C [docetaxel]
toxicity ([2]; KB tumors, docetaxel alone 7 mg/kg BIW×3): Mild toxicity | CR's (LU2505 NSCLC tumors): 2 | PR's (LU2505 NSCLC tumors): 2 | cures (LU2505 NSCLC tumors): 2 | animals exhibiting stable disease (LU1147 NSCLC tumors): 2 animals

C=C1C[C@@H]2CC[C@@]34C[C@H]5O[C@H]6[C@@H](O3)[C@H]3O[C@H](CC[C@@H]3O[C@H]6[C@H]5O4)CC(=O)C[C@@H]3[C@@H](OC)[C@@H](C[C@H](O)CN)O[C@H]3C[C@H]3O[C@@H](CC[C@@H]1O2)C[C@@H](C)C3=C [Eribulin mesylate, eribulin mesylate, reference compound]
animal exhibiting PR (ST502 tumors): 1 animal | animal exhibiting stable disease (ST502 tumors): 1 animal | PR's (ST738 tumors): 2 | animals exhibiting stable disease (ST738 tumors): 5 animals

CC(=O)O[C@H]1C(=O)[C@@]2(C)[C@H]([C@H](OC(=O)c3ccccc3)[C@]3(O)C[C@H](OC(=O)[C@H](O)[C@@H](NC(=O)c4ccccc4)c4ccccc4)C(C)=C1C3(C)C)[C@]1(OC(C)=O)CO[C@@H]1C[C@@H]2O [Paclitaxel, paclitaxel, reference compound]
animals exhibiting stable disease (ST040 tumors): zero | anti-tumor activity (ST024 tumors): no anti-tumor activity

N.N.[Cl][Pt][Cl] [cisplatin, reference compound]
partial response (PR) [3]: did not produce even a single partial response

CCCC(=O)OCN(C(=O)[C@@H](NC(=O)[C@H]1CCCCN1C)[C@@H](C)CC)[C@H](C[C@@H](OC(C)=O)c1nc(C(=O)N[C@@H](Cc2ccc(O)cc2)C[C@H](C)C(=O)O)cs1)C(C)C [Tubulysin B, tubulysin B, reference compound]
IC50 (cells in culture): ~1 nM | Toxicity Avg. Weight Loss [2, 6]: >20% | Toxicity Deaths (%) [2, 6]: 100% | Toxicity Avg. Weight Loss [2, 7]: >18% | Toxicity Deaths (%) [2, 7]: 100% | Toxicity Avg. Weight Loss [2, 8]: >15% | Toxicity Deaths (%) [2, 8]: 100% | CR (%) (KB tumors; 0.1 μmol/kg (4 doses)): 0% | Cures (%) (KB tumors; 0.1 μmol/kg (4 doses)): 0% | PR (%) (KB tumors; 0.1 μmol/kg (4 doses)): 0% | CR (%) (KB tumors; 0.2 μmol/kg (3 doses)): 0% | Cures (%) (KB tumors; 0.2 μmol/kg (3 doses)): 0% | PR (%) (KB tumors; 0.2 μmol/kg (3 doses)): 0% | CR (%) (KB tumors; 0.5 μmol/kg (1 dose)): 0% | Cures (%) (KB tumors; 0.5 μmol/kg (1 dose)): 0% | PR (%) (KB tumors; 0.5 μmol/kg (1 dose)): 0%

N.N.O=C([O-])C1(C(=O)[O-])CCC1.[Pt+2] [carboplatin, reference compound]
toxicity ([2]; KB tumors, carboplatin/paclitaxel study, carboplatin administered alone): Mild toxicity | toxicity ([2]; P-1635 KB tumors, carboplatin alone 50 mg/kg TIW): Mild toxicity | CR's (KB tumors; [9]): 80% | cures (KB tumors; [9]): 20%

COc1cccc2c1C(=O)c1c(O)c3c(c(O)c1C2=O)C[C@@](O)(C(=O)CO)C[C@@H]3O[C@H]1C[C@H](N)[C@H](O)[C@H](C)O1 [doxorubicin, reference compound]
toxicity ([2]; KB-DR150 tumors, doxorubicin alone, DOXIL 5 mg/kg BIW×2): Mild toxicity
